PMC12193833, “Toxicity Assessment and Antifungal Potential of Copper(II) and Silver(I) Complexes with 1,10-Phenanthroline-5,6-dione Against Drug-Resistant Clinical Isolates of Cryptococcus gattii and Cryptococcus neoformans” (Journal of Fungi, 2025)
≈ marks a conversion by molar mass, not a printed value.

Tests used:
[1] = tested on: C. neoformans clinical isolates; test: MIC/MFC of test compounds, microdilution; format: cell-based, Cryptococcus neoformans
Excerpt: (§1) Six clinical isolates belonging to the Cryptococcus genus were obtained from patients who attended the Instituto Nacional de Infectologia Evandro Chagas (INI), Fundação Oswaldo Cruz (FIOCRUZ), and were kindly provided by Dr. Rodrigo Almeida-Paes (INI-FIOCRUZ). To comply with ethical standards and institutional agreements between UFRJ and FIOCRUZ, patient data were not disclosed. In this sense, the C. neoformans isolates were designated CFP00213 (213), CFP00223 (223), and CFP00350 (350), while the C. gattii isolates were labeled CFP00023 (23), CFP00025 (25), and CFP00027 (27). Before each experiment, an aliquot of the culture was transferred from Sabouraud dextrose agar (2% glucose, 1% peptone, and 0.5% yeast extract) to RPMI 1640 medium (Sigma-Aldrich, St. Louis, MO, USA), pH 7.2, buffered with 0.165 M MOPS (Sigma-Aldrich, St. Louis, MO, USA). RPMI medium induces the expression of capsular polysaccharides, the primary virulence factor of Cryptococcus cells. The cultures were incubated at 37 °C for 48 h to promote cell proliferation, stimulate metabolic activation, and enhance capsular development. Yeast cell counts were determined using a Neubauer chamber.
(§2) Following MIC determination, the MFC was assessed by inoculating 10 µL from wells showing no visible fungal growth onto Sabouraud dextrose agar. […] To further support and strengthen the evidence of the anti-Cryptococcus activity of the Cu-phendione and Ag-phendione complexes, we additionally performed MIC/MFC assays using well-characterized standard reference strains: ATCC 28957, H99, T1444 (all C. neoformans), and R265 (C. gattii).

[2] = tested on: C. gattii clinical isolates; test: MIC/MFC of test compounds, microdilution; format: cell-based, Cryptococcus gattii
Excerpt: as §1, §2

[3] = tested on: Galleria mellonella larvae; test: In vivo acute toxicity, single treatment; settings: single inoculation; for Larval survival: 125–1000 µM, 10 µL/larva, 37 °C
Description: In this set of experiments, G. mellonella larvae weighing approximately 0.2–0.3 g and displaying clear, uniform coloration were used. The larvae were inoculated (10 µL/larva) using an insulin syringe (BD Ultra-Fine, Franklin Lakes, NJ, USA) at the last left proleg. […] We also assessed their coloration through visual analysis as an indicator of stress levels. Throughout the experiments, the larvae were maintained at 37 °C [19, 42]. Two distinct treatment protocols were designed to evaluate the effects of the test compounds on larval survivability, as detailed below.
For the acute toxicity analysis, the test compounds were administered to the larvae in a single inoculation at concentrations ranging from 1000 to 125 μM. Each group consisted of 10 larvae, while the control group received only sterile PBS with 4% DMSO. […] The SI was calculated using the following equation: SI = G. mellonella CC50/Cryptococcus MIC.

[4] = tested on: C. gattii clinical isolates; test: Susceptibility to clinically available antifungals, CLSI M27-A3 microdilution; format: cell-based; settings: Cryptococcus gattii
Excerpt: as §1
(§3) The susceptibility profile was evaluated using the microdilution method in RPMI 1640 medium buffered with 0.165 M MOPS, following the M27-A3 protocol for yeasts established by the Clinical and Laboratory Standards Institute (CLSI). […] Each fungal isolate was classified as either wild-type or non-wild-type for each antifungal based on the epidemiological cutoff values provided in CLSI M59 ED3, 2020 [32].

[5] = tested on: C. neoformans clinical isolates; test: as above; format: cell-based; settings: Cryptococcus neoformans
Excerpt: as §1, §3

[6] = tested on: six clinical Cryptococcus isolates; test: Susceptibility to clinically available antifungals, all six isolates; format: cell-based, Cryptococcus neoformans and Cryptococcus gattii
Excerpt: as §1, §3

[7] = tested on: G. mellonella larvae; set-up: method as in PMID 32265890; settings: cited from earlier work; for Toxicity in G. mellonella larvae: up to 500 µg/mL, within 72 h; for Mortality rate in G. mellonella larvae: 750 µg/mL
[8] = tested on: G. mellonella; settings: cited from earlier work
[9] = C. neoformans isolate 213, read-out: MIC
[10] = C. neoformans isolate 223, read-out: MIC
[11] = C. neoformans isolate 350, read-out: MIC
[12] = all C. neoformans clinical isolates
[13] = C. gattii isolate 23, read-out: MIC
[14] = C. gattii isolate 25, read-out: MIC
[15] = C. gattii isolate 27, read-out: MIC
[16] = all C. gattii clinical isolates
[17] = 24 h, C. gattii isolate 23, 37 °C
[18] = 24 h, C. gattii isolate 25, 37 °C
[19] = 24 h, C. gattii isolate 27, 37 °C
[20] = C. gattii isolate 23, value in brackets
[21] = C. gattii isolate 25, value in brackets
[22] = C. gattii isolate 27, value in brackets
[23] = 24 h, C. neoformans isolate 213, 37 °C
[24] = 24 h, C. neoformans isolate 223, 37 °C
[25] = 24 h, C. neoformans isolate 350, 37 °C
[26] = C. neoformans isolate 213, value in brackets
[27] = C. neoformans isolate 223, value in brackets
[28] = C. neoformans isolate 350, value in brackets

Compound: [Ag+].[O-][Cl+3]([O-])([O-])[O-] [AgClO4, silver perchlorate]
- MFC ([1]; C. neoformans isolate 213): > 100 µM
- MIC [1, 9]: 1.56 µM
- MFC ([1]; C. neoformans isolate 223): > 100 µM
- MIC [1, 10]: 1.56 µM
- MFC ([1]; C. neoformans isolate 350): > 100 µM
- MIC [1, 11]: 1.56 µM
- MFC [1, 12]: > 100 µM
- MIC ([1]; all C. neoformans clinical isolates, read-out: MIC): 1.56 µM
- MFC ([2]; C. gattii isolate 23): 12.5 µM
- MIC [2, 13]: 1.56 µM
- MFC ([2]; C. gattii isolate 25): 12.5 µM
- MIC [2, 14]: 1.56 µM
- MFC ([2]; C. gattii isolate 27): 12.5 µM
- MIC [2, 15]: 1.56 µM
- MFC [2, 16]: 12.5 µM
- MIC ([2]; all C. gattii clinical isolates, read-out: MIC): 1.56 µM
- Larval mortality ([3]; 250 µM): 20%
- Larval mortality ([3]; 500 µM): 20%
- Larval mortality ([3]; 1000 µM): 50%

Compound: C[C@@H]1[C@H](O)[C@@H](C)/C=C/C=C/C=C/C=C/C=C/C=C/C=C/[C@H](O[C@@H]2O[C@H](C)[C@@H](O)[C@H](N)[C@@H]2O)C[C@@H]2O[C@](O)(C[C@@H](O)C[C@@H](O)[C@H](O)CC[C@@H](O)C[C@@H](O)CC(=O)O[C@H]1C)C[C@H](O)[C@H]2C(=O)O [Amphotericin B, amphotericin B]
- MIC [4, 17]: 0.03 µg/mL
- MIC [4, 18]: 0.03 µg/mL
- MIC [4, 19]: 0.03 µg/mL
- MIC [4, 20]: 0.03 µM
- MIC [4, 21]: 0.03 µM
- MIC [4, 22]: 0.03 µM
- MIC [5, 23]: 0.03 µg/mL
- MIC [5, 24]: > 16 µg/mL
- MIC [5, 25]: 0.03 µg/mL
- MIC [5, 26]: 0.03 µM
- MIC [5, 27]: > 17.3 µM
- MIC [5, 28]: 0.03 µM
- MIC ([6]; all other Cryptococcus isolates (except C. neoformans isolate printed as 233)): 0.03 µg/mL (≈ 0.0325 µM)

Compound: O.O.O.O.O.O.[Cu+2].[O-][Cl+3]([O-])([O-])[O-].[O-][Cl+3]([O-])([O-])[O-] [Cu(ClO4)2.6H2O, copper perchlorate]
- MIC ([1]; C. neoformans isolate 213): >100/ND µM
- MIC ([1]; C. neoformans isolate 223): >100/ND µM
- MIC ([1]; C. neoformans isolate 350): >100/ND µM
- MIC [1, 12]: no antifungal activity
- MIC ([2]; C. gattii isolate 23): >100/ND µM
- MIC ([2]; C. gattii isolate 25): >100/ND µM
- MIC ([2]; C. gattii isolate 27): >100/ND µM
- MIC [2, 16]: no antifungal activity
- Larval survival [3]: 100%

Compound: OC(Cn1cncn1)(Cn1cncn1)c1ccc(F)cc1F [Fluconazole, fluconazole]
- MIC [4, 17]: 32 µg/mL
- MIC [4, 18]: 16 µg/mL
- MIC [4, 19]: 16 µg/mL
- MIC [4, 20]: 104 µM
- MIC [4, 21]: 52.2 µM
- MIC [4, 22]: 52.2 µM
- MIC ([6]; across all six clinical Cryptococcus isolates): ≥ 4 µg/mL

Compound: Nc1[nH]c(=O)ncc1F [Flucytosine, flucytosine]
- MIC [4, 17]: 0.125 µg/mL
- MIC [4, 18]: 4 µg/mL
- MIC [4, 19]: 4 µg/mL
- MIC [4, 20]: 0.96 µM
- MIC [4, 21]: 30 µM
- MIC [4, 22]: 30 µM
- MIC [5, 23]: 4 µg/mL
- MIC [5, 24]: 64 µg/mL
- MIC [5, 25]: 16 µg/mL
- MIC [5, 26]: 30 µM
- MIC [5, 27]: 496 µM
- MIC [5, 28]: 124 µM

Compound: O=C1C(=O)c2cccnc2-c2ncccc21 [Phendione, 1,10-Phenanthroline-5,6-dione]
- MIC [1, 9]: 12.5 µM (≈ 2.63 µg/mL)
- MIC [1, 10]: 12.5 µM (≈ 2.63 µg/mL)
- MIC [1, 11]: 12.5 µM (≈ 2.63 µg/mL)
- MFC ([1]; Cryptococcus neoformans, C. neoformans isolate 213): > 100 µM
- MFC ([1]; Cryptococcus neoformans, C. neoformans isolate 223): 100 µM (≈ 21 µg/mL)
- MFC ([1]; Cryptococcus neoformans, C. neoformans isolate 350): 100 µM (≈ 21 µg/mL)
- MFC ([1]; Cryptococcus neoformans, all C. neoformans clinical isolates): ≥ 100 µM
- MIC ([1]; Cryptococcus neoformans, all C. neoformans clinical isolates, read-out: MIC): 12.5 µM (≈ 2.63 µg/mL)
- MIC [2, 13]: 12.5 µM (≈ 2.63 µg/mL)
- MIC [2, 14]: 12.5 µM (≈ 2.63 µg/mL)
- MIC [2, 15]: 12.5 µM (≈ 2.63 µg/mL)
- MFC ([2]; Cryptococcus gattii, C. gattii isolate 23): > 100 µM
- MFC ([2]; Cryptococcus gattii, C. gattii isolate 25): 100 µM (≈ 21 µg/mL)
- MFC ([2]; Cryptococcus gattii, C. gattii isolate 27): > 100 µM
- MFC ([2]; Cryptococcus gattii, all C. gattii clinical isolates): ≥ 100 µM
- MIC ([2]; Cryptococcus gattii, all C. gattii clinical isolates, read-out: MIC): 12.5 µM (≈ 2.63 µg/mL)
- Larval survival [3]: 100%

Compound: [Ag+].[O-][Cl+3]([O-])([O-])[O-].c1cnc2c(c1)ccc1cccnc12.c1cnc2c(c1)ccc1cccnc12 [[Ag(1,10-phenanthroline)2]ClO4]
- Toxicity in G. mellonella larvae [7]: no toxicity
- Galiomycin expression [8]: increased
- RNA levels encoding transferrin and inducible metalloproteinase inhibitor protein (IMPI) [8]: increased

Compound: O.O.O.O.O=C([O-])c1cccc(C(=O)[O-])c1.O=C([O-])c1cccc(C(=O)[O-])c1.[Mn+2].[Mn+2].c1cnc2c(c1)ccc1cccnc12.c1cnc2c(c1)ccc1cccnc12.c1cnc2c(c1)ccc1cccnc12 [[Mn2(isophthalic acid)2(1,10-phenanthroline)3]·4H2O]
- RNA levels encoding transferrin and inducible metalloproteinase inhibitor protein (IMPI) [8]: increased

Compound: O.O.O=C([O-])c1ccccc1C(=O)[O-].[Mn+2].c1cnc2c(c1)ccc1cccnc12 [[Mn(phthalic acid)(1,10-phenanthroline)(H2O)2]]
- Mortality rate in G. mellonella larvae [7]: 40%
- Toxicity in G. mellonella larvae [7]: no toxicity

Compound: O.O.O.O.O.O=C([O-])c1ccc(C(=O)[O-])cc1.[Mn+2].c1cnc2c(c1)ccc1cccnc12.c1cnc2c(c1)ccc1cccnc12 [[Mn(terephthalic acid)(1,10-phenanthroline)2]·5H2O]
- Gallerimycin expression [8]: upregulated
- RNA levels encoding transferrin and inducible metalloproteinase inhibitor protein (IMPI) [8]: increased

Compound: O.O.O.O.O.O.O.O.O.O.O.O.O.O.O.O.O=C([O-])c1cccc(C(=O)[O-])c1.O=C([O-])c1cccc(C(=O)[O-])c1.[Mn+2].[Mn+2].c1cnc2c(c1)ccc1cccnc12.c1cnc2c(c1)ccc1cccnc12.c1cnc2c(c1)ccc1cccnc12.c1cnc2c(c1)ccc1cccnc12.c1cnc2c(c1)ccc1cccnc12 [{[Mn(1,10-phenanthroline)2(H2O)2]}2(isophthalic acid)2(1,10-phenanthroline)·12H2O]
- Mortality rate in G. mellonella larvae [7]: 13%

Compound: {[Cu(3,6,9-trioxaundecanedioic acid)(1,10-phenanthroline)2]3H2O·EtOH}n
- Mortality rate in G. mellonella larvae [7]: 60%
- Toxicity in G. mellonella larvae [7]: no toxicity

Compound: {[Mn(3,6,9-trioxoundecanedioic acid)(1,10-phenanthroline)2]·3H2O·EtOH}n
- RNA levels encoding transferrin and inducible metalloproteinase inhibitor protein (IMPI) [8]: increased
